Each structure is given as a SMILES string. Counter-ions that a name gives are not always drawn. Like-named read-outs stand apart in the source and are kept apart here.

For one experiment, the target named is 5HT1A receptor. Description: 3H-8-OH-DPAT binding assay (Method I a). Particulars: read-out: IC50, test method a. The method, then: The binding of the compounds of formula I in accordance with the invention to serotonin receptors was determined in vitro by standard methods. The preparations were investigated in accordance with the assays given hereinafter: […]

Another experiment deals with T1, 5HT2C receptor (Sus scrofa, UniProt K7GSR7).
T1 construct: from tissue
T1 sequence (K7GSR7 1-457): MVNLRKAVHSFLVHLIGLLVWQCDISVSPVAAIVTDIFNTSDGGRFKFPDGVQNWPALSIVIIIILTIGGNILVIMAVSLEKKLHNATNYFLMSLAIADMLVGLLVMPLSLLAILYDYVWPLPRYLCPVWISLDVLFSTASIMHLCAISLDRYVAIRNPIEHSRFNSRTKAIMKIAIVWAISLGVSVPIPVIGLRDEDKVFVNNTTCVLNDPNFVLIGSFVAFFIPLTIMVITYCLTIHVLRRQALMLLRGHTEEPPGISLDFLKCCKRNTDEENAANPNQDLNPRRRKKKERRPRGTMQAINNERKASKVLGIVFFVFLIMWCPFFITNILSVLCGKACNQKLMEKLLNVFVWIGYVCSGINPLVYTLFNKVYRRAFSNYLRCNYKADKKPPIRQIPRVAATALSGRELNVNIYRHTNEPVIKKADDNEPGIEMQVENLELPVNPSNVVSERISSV
Description: 3H-mesulergine binding assay (Method I b). The method, then: (§1) The binding of the compounds of formula I in accordance with the invention to serotonin receptors was determined in vitro by standard methods. The preparations were investigated in accordance with the assays given hereinafter:
b) For the binding to the 5HT2C receptor in accordance with the ^3 H-mesulergine binding assay according to the method of A. Pazos et al., Europ. J. Pharmacol. 106, 539-546 or. D. Hoyer, Receptor Research 8, 59-81 (1988).

The target of another experiment is T2, 5HT2A receptor (Rattus norvegicus, UniProt P14842).
T2 construct: from tissue; host or cells: rat frontal cortex membranes (inferred from the cited method)
Description: biochemical. The class given is binding. Here is the method: as §1
c) For the binding to the 5HT2A receptor in accordance with the ^3 H-ketanserine binding assay according to the method of J. E. Leysen, Molecular Pharmacology 21, 301-304 (1981).

Where [1] appears, read: 5HT2C, 3H-mesulergine, Method I, read-out: IC50, test method b.

T2 sequence (P14842 whole entry): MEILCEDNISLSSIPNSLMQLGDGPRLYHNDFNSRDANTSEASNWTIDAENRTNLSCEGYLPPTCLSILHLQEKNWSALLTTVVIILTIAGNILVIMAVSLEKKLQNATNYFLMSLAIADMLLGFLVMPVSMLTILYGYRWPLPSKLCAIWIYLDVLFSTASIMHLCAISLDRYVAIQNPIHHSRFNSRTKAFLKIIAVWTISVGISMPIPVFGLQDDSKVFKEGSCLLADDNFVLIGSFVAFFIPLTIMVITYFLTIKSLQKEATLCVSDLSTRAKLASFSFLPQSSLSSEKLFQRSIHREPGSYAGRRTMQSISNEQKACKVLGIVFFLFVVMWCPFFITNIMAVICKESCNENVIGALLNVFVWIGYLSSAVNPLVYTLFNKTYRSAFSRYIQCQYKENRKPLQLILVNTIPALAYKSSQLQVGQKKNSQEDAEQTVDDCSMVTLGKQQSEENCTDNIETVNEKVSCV

Regarding `CC(N)Cn1ccc2c1-c1cc(Cl)ccc1C2` (racemic) [Example 21, (RS)-2-(7-chloro-1,4-dihydro-indeno[1,2-b]pyrrol-1-yl)-1-methyl-ethylaminefumarate (1:0.5)], the 50% inhibitory concentration (IC50) on 5HT1A receptor was 1350 nM; on 5HT2C receptor it was 56.6 nM; against 5HT2A receptor, 2540 nM.

On to `COc1ccc2c(c1)-c1c(ccn1CC(C)N)C2` (racemic) [Example 22, (RS)-2-(7-methoxy-1,4-dihydro-indeno[1,2-b]pyrrol-1-yl)-1-methyl-ethylamine fumarate (1:0.5)], for which the IC50 at 5HT1A receptor came out at 1590 nM; at 5HT2C receptor, 30.4 nM; against 5HT2A receptor it was 1400 nM.

In the case of `CC(N)Cn1ccc2c1-c1ccccc1OC2` (racemic) [Example 34, (RS)-1-(1,4-dihydro-[1]benzopyrano-[4,3-b]pyrrol-1-yl)-1-methyl-ethylaminefumarate (1:0.5)], the IC50 at 5HT1A receptor came out at 1620 nM; on 5HT2C receptor (setting [1]), 107 nM; on 5HT2A receptor, 2640 nM.

With `CC(N)Cn1ccc2c1-c1ccc(Cl)cc1C2` (racemic) [Example 53, (RS)-2-(6-chloro-1,4-dihydro-indeno[1,2-b]pyrrol-1-yl)-1-methyl-ethylaminefumarate (1:0.5)], the results for the IC50 on 5HT1A receptor, on 5HT2C receptor and at 5HT2A receptor were 1100 nM, 308 nM and 11300 nM, respectively.

Regarding `COc1ccc2c(c1)Cc1ccn(CC(C)N)c1-2` (racemic) [Example 55, (RS)-2-(6-methoxy-1,4-dihydro-indeno[1,2-b]pyrrol-1-yl)-1-methyl-ethylamine fumarate (1:0.5)], the IC50 at 5HT1A receptor came out at 1260 nM; at 5HT2C receptor, 371 nM; on 5HT2A receptor, 8350 nM.

Take `CC(N)Cn1ccc2c1-c1ccccc1SC2` (racemic) [Example 64]: the half-inhibitory concentration (IC50) at 5HT1A receptor turned out to be 384 nM; at 5HT2C receptor (setting [1]), 85.4 nM; against 5HT2A receptor it was 773 nM.

Regarding `COc1cccc2c1-c1c(ccn1CC(C)N)C2` (racemic) [Example 67, (RS)-2-(8-methoxy-1,4-dihydro-indeno[1,2-b]pyrrol-1-yl)-1-methyl-ethylamine fumarate (1:0.5)], the IC50 on 5HT1A receptor came to 1750 nM; at 5HT2C receptor, 146 nM; at 5HT2A receptor, 1070 nM.

As to `CC(N)Cn1ccc2c1-c1ccccc1C2c1ccccc1` (racemic) [Example 69, (2RS/4RS)-2-(4-phenyl-1,4-dihydro-indeno[1,2-b]pyrrol-1-yl)-1-methyl-ethylamine fumarate (1:0.86)], the half-maximal inhibitory concentration (IC50) on 5HT1A receptor turned out to be 3460 nM; at 5HT2C receptor, 143 nM; against 5HT2A receptor, 854 nM.

As to `O=c1ccc2[nH]cc(C3=CCNCC3)c2[nH]1` [CP 93129, reference compound], the half-maximal inhibitory concentration (IC50) at 5HT1A receptor came to 1620 nM; at 5HT2A receptor it was 29200 nM.

Regarding `COc1ccc2ccc3ccn(C[C@H](C)N)c3c2c1` [Example 7, (S)-2-(8-methoxy-1H-benz[g]indol-1-yl)-1-methyl-ethylamine fumarate (1:0.5)], the values for the 50% inhibitory concentration (IC50) on 5HT1A receptor, on 5HT2C receptor and against 5HT2A receptor were 2160 nM, 24 nM and 1200 nM, respectively.

On to `COc1ccc2c(c1)-c1c(ccn1CCN)C2` [Example 23, 2-(7-methoxy-1,4-dihydro-indeno[1,2-b]pyrrol-1-yl)-ethylamine fumarate (1:1)], for which the figures for the IC50 on 5HT1A receptor, at 5HT2C receptor and against 5HT2A receptor were 347 nM, 45.2 nM and 3340 nM, respectively.

Turning to `COc1ccc2c(c1)-c1c(ccn1C[C@@H](C)N)C2` [Example 28, (R)-2-(7-methoxy-1,4-dihydro-indeno[1,2-b]pyrrol-1-yl)-1-methyl-ethylaminefumarate (1:0.5)], the figures for the concentration for half-maximal inhibition (IC50) on 5HT1A receptor, at 5HT2C receptor and against 5HT2A receptor were 1070 nM, 78.7 nM and 1630 nM, respectively.

For `COc1ccc2c(c1)-c1c(ccn1C[C@@H](C)N)CC2` [Example 30, (R)-2-(4,5-dihydro-8-methoxy-1H-benz[g]indol-1-yl)-1-methyl-ethylamine fumarate (1:1)], the results for the IC50 at 5HT1A receptor, on 5HT2C receptor and at 5HT2A receptor were 298 nM, 58.1 nM and 479 nM, respectively.

On to `COc1ccc2ccc3ccn(C[C@@H](C)N)c3c2c1` [Example 31, (R)-2-(8-methoxy-1H-benz[g]indol-1-yl)-1-methyl-ethylamine fumarate (1:0.5)], for which the IC50 on 5HT1A receptor was found to be 337 nM; on 5HT2C receptor it was 28.1 nM; at 5HT2A receptor, 874 nM.

On to `COc1ccc2ccc3ccn(CCN)c3c2c1` [Example 32, 2-(8-methoxy-1H-benz[g]indol-1-yl)-ethylamine fumarate (1:1)], for which the figures for the half-inhibitory concentration (IC50) at 5HT1A receptor, on 5HT2C receptor and on 5HT2A receptor were 139 nM, 18 nM and 1670 nM, respectively.

With `COc1ccc2c(c1)-c1c(ccn1C(C)(C)N)CO2` [Example 54, (RS)1-(8-methoxy-1,4-dihydro[1]benzopyrano[4,3b]pyrrol1-yl)-1-methyl-ethylamine], the concentration for half-maximal inhibition (IC50) at 5HT1A receptor turned out to be 825 nM; at 5HT2C receptor (setting [1]), 116 nM; at 5HT2A receptor (5HT2A, 3H-ketanserine, Method I, read-out: IC50, test method c), 2590 nM.

Take `COc1ccc2c(c1)-c1c(ccn1CCN)CC2` [Example 59, 2-(4,5-dihydro-8-methoxy-1H-benz[g]indol-1-yl)-ethylamine fumarate (1:1)]: the IC50 turned out to be 97 nM on 5HT1A receptor, 23.8 nM on 5HT2C receptor and 1510 nM against 5HT2A receptor.

`CN1C[C@H](CNC(=O)OCc2ccccc2)C[C@@H]2c3cccc4c3c(cn4C)C[C@H]21` [Metergoline, reference compound] yielded an IC50 at 5HT2C receptor of 5.5 nM.

Turning to `COc1ccccc1N1CCN(CCCCN2C(=O)c3ccccc3C2=O)CC1` [NAN-190, reference compound], the IC50 at 5HT1A receptor was 0.56 nM; on 5HT2C receptor, 1800 nM; against 5HT2A receptor, 581 nM.

With `Cc1nc2ccccn2c(=O)c1CCN1CCC(C(=O)c2ccc(F)cc2)CC1` [Pirenperone, reference compound], the IC50 was 2880 nM at 5HT1A receptor, 37 nM on 5HT2C receptor and 2.9 nM against 5HT2A receptor.

On to `COc1ccc2[nH]cc(C3=CCNCC3)c2c1` [RU 24969, reference compound], for which the IC50 on 5HT1A receptor worked out at 8 nM.

Regarding `Cc1nc2sccn2c(=O)c1CCN1CCC(=C(c2ccc(F)cc2)c2ccc(F)cc2)CC1` [Ritanserine, reference compound], the IC50 on 5HT2C receptor came out at 37 nM.

As to `Clc1cccc(N2CCNCC2)c1` [mCPP, reference compound], the half-inhibitory concentration (IC50) turned out to be 227 nM on 5HT1A receptor, 53 nM at 5HT2C receptor (setting [1]) and 319 nM at 5HT2A receptor.

For the origin of these results see patent US5646173A, “Tricyclic pyrrole derivatives useful as 5-HT selective agents” (Hoffmann-La Roche Inc., priority 1993, dated 1997).
